Patent US4264597A, “Cephalosporin analogues and processes for the preparation thereof” (priority 1978, dated 1981)
Converted amounts (≈) assume the structure as drawn.

Tested on: T. asteroides
Experiment: In vitro antimicrobial activity, two-fold agar-plate dilution method (MIC)
Type: cell-based
Settings: overnight culture in Trypticase-soy broth (10^4-5 viable spores per ml) streaked on HI-agar, incubation at 37° C. for 20 hours
Experimental: In vitro antibacterial activity was determined by the two-fold agar-plate dilution method as described below. One loopful of an overnight culture of each test strain in Trypticase-soy broth (10^4-5 viable spores per ml) was streaked on heart infusion sugar (HI-agar) containing graded concentrations of antibiotics, and the minimal inhibitory concentration (MIC) was expressed in terms of μg/ml after incubation at 37° C. for 20 hours.

MIC [µg/mL] | SMILES
100 (≈ 228 µM) | O=C(COc1ccccc1)N[C@@H]1C(=O)N2C(C(=O)OCc3ccccc3)=CC(=O)S[C@H]12 [(1)]
200 (≈ 473 µM) | O=C(COc1ccccc1)N[C@@H]1C(=O)N2C(C(=O)OCc3ccccc3)=CC(=O)O[C@H]12 [(2)]
